Like-named read-outs stand apart in the source and are kept apart here.
Assays:
[1] = tested on: TNFα production in LPS-stimulated human monocytes; test: Cot Monocyte TNFα Cell Based Assay; conditions: Homo sapiens, Monocyte, read-out: EC50 TNF
Outline: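 Percent-of-control values derive from TR-FRET ratios of TNFα in spun-down media, referenced to unstimulated and LPS-stimulated wells. Exposure: 1 h compound preincubation, then 50 pg/ml LPS for 4 h, both at 37 °C, with 0.5% final DMSO.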

[2] = biological target: T1, human Cot catalytic domain (30-397 amino acids) (Homo sapiens, UniProt P41279); test: High Throughput Cot Biochemical Assay (KinEASE TR-FRET); conditions: Cot KinEASE TR-FRET, 400 μM ATP; read-out: IC50 HTRF
T1 construct: Purified recombinant human Cot catalytic domain (30-397 amino acids) was purchased from Cama Biosciences; purchased Cama Biosciences (so in the source)
Outline: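 Phosphorylation of 1 μM XL665-STK3 peptide by 5 nM Cot catalytic domain was measured by time-resolved FRET using a europium […] antibody. ATP was 400 μM; buffer was 10 mM MOPS pH 7.0 with Mg2+ and DTT.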

[3] = LPS-stimulated human monocytes, TNFα TR-FRET

T1 sequence (P41279 30-397): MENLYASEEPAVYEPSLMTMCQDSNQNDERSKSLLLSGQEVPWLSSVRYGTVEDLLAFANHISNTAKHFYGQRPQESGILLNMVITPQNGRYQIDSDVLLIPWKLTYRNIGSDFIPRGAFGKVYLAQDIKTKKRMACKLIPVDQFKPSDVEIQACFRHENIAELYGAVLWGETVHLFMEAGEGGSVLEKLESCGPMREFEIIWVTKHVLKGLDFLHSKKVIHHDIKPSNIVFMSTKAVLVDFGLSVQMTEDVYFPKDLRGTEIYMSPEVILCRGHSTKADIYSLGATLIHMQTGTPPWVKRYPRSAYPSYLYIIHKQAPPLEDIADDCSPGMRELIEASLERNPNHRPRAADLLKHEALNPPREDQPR

Structure (SMILES)	EC50 [1, 3]	IC50 [2]	EC50 [1]
N#Cc1cnc2c(Cl)cc(N[C@@H](c3ccccc3)c3cn(C4CC4)nn3)cc2c1N[C@@H](c1ccccc1)C(F)(F)CO [Example 986, 8-chloro-6-(((S)-(1-cyclopropyl-1H-1,2,3-triazol-4-yl)(phenyl)methyl)amino)-4-(((S)-2,2-difluoro-3-hydroxy-1-phenylpropyl)amino)quinoline-3-carbonitrile]	222 nM	13 nM	
CC(C)(C)CNc1c(C#N)cnc2c(C#N)cc(N[C@@H](c3ccc(F)cc3)c3cn(C4(c5cccnn5)CC4)nn3)cc12 [Example 987, (S)-6-(((4-fluorophenyl)(1-(1-(pyridazin-3-yl)cyclopropyl)-1H-1,2,3-triazol-4-yl)methyl)amino)-4-(neopentylamino)quinoline-3,8-dicarbonitrile]	69 nM	32 nM	
[2H][C@](Nc1cc(Br)c2ncc(C#N)c(NCC(C)(C)C)c2c1)(c1ccc(F)cc1)c1cn(CC(O)CNC(C)(C)C)nn1 (stereo partly drawn) [Example 988, 8-bromo-6-(((1S)-(1-(3-(tert-butylamino)-2-hydroxypropyl)-1H-1,2,3-triazol-4-yl)(4-fluorophenyl)methyl-d)amino)-4-(neopentylamino)quinoline-3-carbonitrile]	334 nM	14 nM	
CC(C)(C)CNc1c(C#N)cnc2c(Cl)cc(N[C@@H](c3ccc(F)cc3)c3cn(C4(C#N)CC4)nn3)cc12 [Example 989, (S)-8-chloro-6-(((1-(1-cyanocyclopropyl)-1H-1,2,3-triazol-4-yl)(4-fluorophenyl)methyl)amino)-4-(neopentylamino)quinoline-3-carbonitrile]	111 nM	12 nM	
CC(C)(C)CNc1c(C#N)cnc2c(Cl)cc(N[C@@H](c3ccc(F)cc3)c3cn(C4(C)CC4)nn3)cc12 [Example 990, (S)-8-chloro-6-(((4-fluorophenyl)(1-(1-methylcyclopropyl)-1H-1,2,3-triazol-4-yl)methyl)amino)-4-(neopentylamino)quinoline-3-carbonitrile]	76 nM	12 nM	
CC(C)(C)CNc1c(C#N)cnc2c(Cl)cc(N[C@@H](c3ccc(F)cc3)c3cn(C4(c5ccccn5)CC4)nn3)cc12 [Example 991, (S)-8-chloro-6-(((4-fluorophenyl)(1-(1-(pyridin-2-yl)cyclopropyl)-1H-1,2,3-triazol-4-yl)methyl)amino)-4-(neopentylamino)quinoline-3-carbonitrile]	136 nM	34 nM	
CC(C)(C)CNc1c(C#N)cnc2c(Cl)cc(N[C@@H](c3ccc(F)cc3)c3cn(C4(C(N)=O)CCC4)nn3)cc12 [Example 992, (S)-1-(4-(((8-chloro-3-cyano-4-(neopentylamino)quinolin-6-yl)amino)(4-fluorophenyl)methyl)-1H-1,2,3-triazol-1-yl) cyclobutane-1-carboxamide]	76 nM	5 nM	
[2H][C@](Nc1cc(C#N)c2ncc(C#N)c(NCC(C)(C)C)c2c1)(c1ccc(F)cc1)c1cn(CCC2CN2C(C)(C)C)nn1 (stereo partly drawn) [Example 993, 6-(((1S)-(1-(2-(1-(tert-butyl)aziridin-2-yl)ethyl)-1H-1,2,3-triazol-4-yl)(4-fluorophenyl)methyl-d)amino)-4-(neopentylamino) quinoline-3,8-dicarbonitrile]		32 nM	3610 nM
[2H][C@](Nc1cc(C#N)c2ncc(C#N)c(NCC(C)(C)C)c2c1)(c1ccc(F)cc1)c1cn(-c2cccnc2)nn1 [Example 994, (S)-6-(((4-fluorophenyl)(1-(pyridin-3-yl)-1H-1,2,3-triazol-4-yl)methyl-d)amino)-4-(neopentylamino) quinoline-3,8-dicarbonitrile]	103 nM	33 nM	
Cc1c(C#N)cccc1[C@H](Nc1cc(C#N)c2ncc(C#N)c(NCC(C)(C)C)c2c1)c1cn(C2(C(F)(F)F)CC2)nn1 [Example 995, (S)-6-(((3-cyano-2-methylphenyl)(1-(1-(trifluoromethyl)cyclopropyl)-1H-1,2,3-triazol-4-yl)methyl)amino)-4-(neopentylamino)quinoline-3,8-dicarbonitrile]	49 nM	3 nM	

Source: patent US10316017B2, “COT modulators and methods of use thereof” (Gilead Sciences, Inc., priority 2015, dated 2019)
